Test results as given in patent US9751081B2, “Self-regenerating antioxidant catalysts and methods of using the same” (Clemson University, priority 2014, dated 2017).

Columns and labels:
[1] = published values; cited from earlier work
[2] = In situ oxidation of ABTS^2− to ABTS^•− via HRP and H2O2 in the presence of antioxidant; assay type: biochemical
[3] = Reduction of ABTS radical monoanion in EtOH (absorbance at 750 nm); assay type: biochemical
Experimental: To probe the potential antioxidant activity of Ru1, 2,2′-azino-bis(3-ethylbenzothiazoline-6-sulfonate) radical monoanion (ABTS^•−), which is stable in aerobic, protic media and undergoes reversible one-electron reduction to ABTS^2−, was selected as the substrate for studies of catalytic radical reduction (Scheme 7).
Accompanying this degradation of 50 μM ABTS^•− was an increase in absorbance at 340 nm corresponding to the formation of 50 μM ABTS^2−, indicating 1:1 conversion of ABTS^•− to ABTS^2− by Ru1.
To assess its catalytic potential and corresponding regeneration, the reactivity of Ru1 with multiple sequential aliquots of excess ABTS^•− was examined. After the reduction of 50 μM ABTS^•− by 5 μM Ru1 (DMSO stock) was complete (FIG. 12B, black line), 5 additional 50 μM aliquots of ABTS^•− were introduced, whereupon complete ABTS^•− reduction occurred each time (FIG. 12B, grey line, 60 turnovers). Although the time required for complete degradation increased with each successive ABTS^•− aliquot, 5 μM Ru1 nonetheless remained catalytically competent for the complete reduction of […] ABTS^•−.

[4] = Stability (air, moisture, solution); assay type: physicochemical; details: isolated powder

OCCO [EG, Ethylene glycol]
pKa [1]: 14.22

CC(C)O [i-PrOH, isopropanol]
pKa [1]: 16.5

Cc1c(C)c2c(c(C)c1O)CCC(C)(C(=O)O)O2 (stereo not drawn) [Trolox]
net oxidation of ABTS^2− ([2]; 5 μM Trolox, 10 μM H2O2): 75%
time with no change in absorbance at 734 nm (ABTS^•− formation halted) ([2]; 5 μM Trolox, 10 μM H2O2): 4.2 ± 0.4 min
initial rate of ABTS^•− formation (v0) ([2]; 5 μM antioxidant (DMSO stock), 10 nM HRP, 50 μM ABTS^2−, first 10 μM H2O2, PBS): 3.44±0.11×10^−8 M s^−1
maximum ABTS^•− concentration ([2]; first 10 μM H2O2): 15.06 ± 0.04 µM
time to maximum ABTS^•− concentration ([2]; first 10 μM H2O2): 22.0 ± 0.5 min
ABTS^•− reduced ([3]; 5 μM antioxidant, 50 μM ABTS^•− in EtOH): 10 µM
decay in radical absorbance at 750 nm ([3]; 5 μM antioxidant, 50 μM ABTS^•− in EtOH, 25° C.): 20%
equiv. of ABTS^•− reduced vs antioxidant ([3]; EtOH, non-catalytic capacity): 2 equiv.

Br.Cc1cc(C)cc(-n2c[n+](CC(=O)[O-])c3ccccc32)c1 [[1H2][Br], 2-(3-{3,5-dimethylphenyl}-benzimidazol-1-ium-1-yl)acetate hydrobromide]
stability to air and moisture [4]: air- and moisture-stable

CO [MeOH, methanol]
pKa [1]: 15.5
